Reference: PMC3598492, “Cannabinoid receptor type 2 (CB2)-selective N-aryl-oxadiazolyl-propionamides: synthesis, radiolabelling, molecular modelling and biological evaluation” (Organic and Medicinal Chemistry Letters, 2012)
Like-named read-outs stand apart in the source and are kept apart here.

What was measured:
hCB2 = molecular target: T1, hCB2 (Homo sapiens, UniProt P34972); test: Competitive [3H]CP55,940 binding on membrane homogenates of hCB2-CHO cells; details: for Binding to hCB2 in words: hCB2-CHO; for Selectivity, pKi (CB2) – pKi (CB1): pKi = -log (Ki)
T1 construct: host or cells: CHO (hCB2-CHO), crude membrane homogenates
T1 sequence (P34972 whole entry): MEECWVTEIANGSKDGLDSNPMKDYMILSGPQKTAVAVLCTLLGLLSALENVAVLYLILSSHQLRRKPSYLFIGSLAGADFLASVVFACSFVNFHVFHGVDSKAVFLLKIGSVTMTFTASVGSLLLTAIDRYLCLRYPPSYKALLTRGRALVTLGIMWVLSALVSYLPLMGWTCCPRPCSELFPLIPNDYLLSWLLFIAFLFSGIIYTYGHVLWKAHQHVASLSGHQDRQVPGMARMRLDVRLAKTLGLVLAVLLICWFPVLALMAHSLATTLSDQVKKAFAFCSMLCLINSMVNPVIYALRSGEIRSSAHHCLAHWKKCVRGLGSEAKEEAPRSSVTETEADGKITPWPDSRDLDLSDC
Procedure: (§1) CHO cell lines stably transfected with human CB1 (hCB1-CHO; obtained from Euroscreen, Gosselies, Belgium) or human CB2 (hCB2-CHO; obtained from Paul L. Prather, Department of Pharmacology and Toxicology, College of Medicine, University of Arkansas for Medical Sciences, USA) were cultured in Ham's F12 medium or Dulbecco's modified Eagle's medium (DMEM) with 10% fetal calf serum, 100 IU/mL penicillin, 100 μg/mL streptomycin and 250 or 400 μg/mL of the selection antibiotic Geneticin (G418), respectively. The cells were cultured in a humidified atmosphere with 5% CO2 at 37°C. Confluent cell layers of 175-cm^2 flasks were scraped; cells were harvested by centrifugation (800 rpm, 3 min), counted by trypan blue staining, suspended in 200 μL of 50 mM tris(hydroxymethyl)aminomethane (TRIS; pH 7.4) at 4°C and stored at −32°C until the binding experiment.
(§2) Competitive binding experiments were performed with crude membrane homogenates obtained from hCB1-CHO or hCB2-CHO cells as described above. […] Incubations were terminated by rapid filtration through a GF-B glass fibre filter pre-incubated for 90 min at room temperature in freshly prepared 0.5% polyvinylpyrrolidone + 0.1% Tween 20 solution using a 48-well cell harvester (Brandel, Gaithersburg, MD, USA).
The corresponding inhibition constants (Ki) of test compounds were derived from the IC50 values using the Cheng-Prusoff equation [49]. All binding experiments were performed in triplicates, and data are given as mean values from independent experiments.

hCB1 = molecular target: T2, hCB1 (Homo sapiens, UniProt P21554); test: Competitive [3H]CP55,940 binding on membrane homogenates of hCB1-CHO cells
T2 construct: host or cells: CHO (hCB1-CHO), crude membrane homogenates
T2 sequence (P21554 whole entry): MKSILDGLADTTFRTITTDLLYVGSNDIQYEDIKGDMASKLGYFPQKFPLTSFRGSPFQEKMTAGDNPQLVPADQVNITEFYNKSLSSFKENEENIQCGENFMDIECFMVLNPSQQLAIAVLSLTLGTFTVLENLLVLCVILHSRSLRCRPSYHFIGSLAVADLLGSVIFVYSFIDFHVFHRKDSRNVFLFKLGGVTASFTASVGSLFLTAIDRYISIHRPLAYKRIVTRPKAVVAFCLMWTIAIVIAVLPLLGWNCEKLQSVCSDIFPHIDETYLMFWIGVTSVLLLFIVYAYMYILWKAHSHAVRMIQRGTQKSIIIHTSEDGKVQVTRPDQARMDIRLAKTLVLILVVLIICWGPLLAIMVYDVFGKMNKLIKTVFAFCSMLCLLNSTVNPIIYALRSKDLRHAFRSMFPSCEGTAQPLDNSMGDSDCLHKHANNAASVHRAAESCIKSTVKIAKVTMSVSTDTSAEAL
Procedure: as §1, §2
Binding data were analysed using GraphPad Prism version 2.01 (GraphPad Software, Inc., San Diego, CA, USA) by non-linear regression to provide estimates of the half maximal inhibitory concentration (IC50) values and the […]. […] The corresponding inhibition constants (Ki) of test compounds were derived from the IC50 values using the Cheng-Prusoff equation [49]. All binding experiments were performed in triplicates, and data are given as mean values from independent experiments.

[1] = molecular target: T3, CB2 receptors in mouse spleen tissue (Mus musculus, UniProt P47936); test: Autoradiographic displacement of [3H]CP55,940 on coronal mouse spleen sections; type: binding; details: for Displacement of the specific binding of 6 nM [3H]CP55,940: mouse spleen sections, HD regions
T3 construct: 12-μm-thick coronal sections obtained from the spleens of three animals; from tissue; host or cells: spleen sections of female CD-1 mice
T3 sequence (P47936 whole entry): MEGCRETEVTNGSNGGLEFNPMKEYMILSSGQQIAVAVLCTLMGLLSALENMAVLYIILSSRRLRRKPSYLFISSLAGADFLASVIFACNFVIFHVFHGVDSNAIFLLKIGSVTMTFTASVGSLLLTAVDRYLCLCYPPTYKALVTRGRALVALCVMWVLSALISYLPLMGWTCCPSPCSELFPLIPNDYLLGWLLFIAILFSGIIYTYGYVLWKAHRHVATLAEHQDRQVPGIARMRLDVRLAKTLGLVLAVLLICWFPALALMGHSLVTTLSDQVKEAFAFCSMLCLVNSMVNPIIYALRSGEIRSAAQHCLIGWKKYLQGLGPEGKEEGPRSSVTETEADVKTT
Procedure: Animal experiments were performed under procedures approved by the State of Saxony Animal Care and Use Committee and conducted in accordance with the German Law for the Protection of Animals. Female CD-1 mice (10 to 12 weeks old, 20 to 25 g), obtained from the Medizinisch-Experimentelles Zentrum der Universität Leipzig (Leipzig, Germany), were used for the experiments.
The animals were anesthetized and sacrificed, and their spleens were rapidly removed and frozen in isopentane at −35°C. The spleens were brought to −15°C in a cryostat (Microm International GmbH, Walldorf, Germany), and a series of 12-μm-thick coronal sections obtained from the spleens of three animals were collected in parallel on microscopic glass slides. The sections were dried at room temperature and stored at −35°C until they were processed for receptor binding autoradiography.
For autoradiographic experiments, the slides were brought to room temperature, dried in a stream of cold air, pre-incubated in a binding buffer (50 mM TRIS (pH 7.4) at 21°C, 5% BSA) for 15 min at room temperature and dried again in a stream of cold air. […] Samples were washed twice for 30 min at 4°C in 50 mM TRIS (pH 7.4) at 4°C, containing 1% BSA, dipped briefly in ice-cold deionized water (5 s), dried in a stream of cold air and exposed along with [^3H] standards (Amersham/GE Healthcare, Piscataway, NJ, USA) for 14 days to [^3H]-sensitive screen plates (Fuji Photo Film, Co. Ltd., Tokyo, Japan).
The image plates were analysed using a BAS-1800II system bioimaging analyser (Fuji Photo Film, Co. Ltd., Tokyo, Japan). Scan data were visualized and processed by computer-assisted microdensitometry (Aida version 2.31, Raytest Isotopenmessgeräte GmbH, Straubenhardt, Germany). Irregular regions of interest (ROIs) were drawn on selected areas of the spleen labelled as red pulp (low-density binding) and white pulp (high-density binding) according to Lynn and Herkenham and Massi et al..

[2] = read-out: Affinity (Ki) towards hCB2
[3] = read-out: Affinity (Ki) towards hCB1

Compound	Binding to hCB2 in words (hCB2)	Ki (hCB2; [2]) [nM]	also measured
CC(C)(C)c1cc(NC(=O)CCc2nc(-c3ccc(Br)nc3)no2)no1 [Compound 1a, 3-(3-(6-Bromopyridin-3-yl)-1,2,4-oxadiazol-5-yl)-N-(5-tert-butylisoxazol-3-yl)propanamide]	high affinity	14.4	–
CC(C)(C)c1cc(NC(=O)CCc2nc(-c3ccc(F)nc3)no2)no1 [Compound 1b, 3-(3-(6-Fluoropyridin-3-yl)-1,2,4-oxadiazol-5-yl)-N-(5-tert-butylisoxazol-3-yl)propanamide]	low affinity	–	Ki (hCB2; hCB2 expressed in CHO cells, 0.5 nM [3H]CP55,940, Cheng-Prusoff, read-out: Affinity (Ki) towards hCB2): > 100000 nM
N#Cc1cc(F)ccc1-c1noc(CCC(=O)Nc2cnc3ccccc3c2)n1 [Compound 2a, 3-(3-(2-Cyano-4-fluorophenyl)-1,2,4-oxadiazol-5-yl)-N-(quinolin-3-yl)propanamide]	–	722	Binding to hCB1 in words (hCB1; hCB1-CHO): could not be observed; Fold lower hCB2 affinity (hCB2; in comparison to 6a): approximately 100 fold
O=C(CCc1nc(-c2ccc(F)nc2)no1)Nc1cnc2ccccc2c1 [Compound 2b, 3-(3-(6-Fluoropyridin-3-yl)-1,2,4-oxadiazol-5-yl)-N-(quinolin-3-yl)propanamide]	low affinity	2290	Binding to hCB1 in words (hCB1; hCB1-CHO): could not be observed
O=C(CCc1nc(-c2ccc(Br)nc2)no1)Nc1cnc2ccccc2c1 [Compound 2c, 3-(3-(6-Bromopyridin-3-yl)-1,2,4-oxadiazol-5-yl)-N-(quinolin-3-yl)propanamide]	low affinity	> 100000	Binding to hCB1 in words (hCB1; hCB1-CHO): could not be observed
CCn1ccc2cc(NC(=O)CCc3nc(-c4ccc(F)nc4)no3)ccc21 [Compound 3b, 3-(3-(6-Fluoropyridin-3-yl)-1,2,4-oxadiazol-5-yl)-N-(1-ethyl-1H-indol-5-yl)-propanamide]	low affinity	> 100000	–
O=C(CCc1nc(-c2ccc(F)cc2Br)no1)Nc1ccc2[nH]c3ccccc3c2c1 [Compound 4e, 3-(3-(2-Bromo-4-fluorophenyl)-1,2,4-oxadiazol-5-yl)-N-(9H-carbazol-3-yl)propanamide]	no binding	> 100000	–
Cn1c2ccccc2c2cc(NC(=O)CCc3nc(-c4ccc(F)cc4Br)no3)ccc21 [Compound 5e, 3-(3-(2-Bromo-4-fluorophenyl)-1,2,4-oxadiazol-5-yl)-N-(9-methyl-9H-carbazol-3-yl)propanamide]	–	250	–
CCn1c2ccccc2c2cc(NC(=O)CCc3nc(-c4ccc(F)nc4)no3)ccc21 [Compound 6b, 3-(3-(6-Fluoropyridin-3-yl)-1,2,4-oxadiazol-5-yl)-N-(9-ethyl-9H-carbazol-3-yl)propanamide]	low affinity	135	Ki (hCB1; [3]): 1560 nM; Selectivity, pKi (CB2) – pKi (CB1) (hCB2; hCB2 versus hCB1): 1.06
CCn1c2ccccc2c2cc(NC(=O)CCc3nc(-c4ccc(Br)nc4)no3)ccc21 [Compound 6c, 3-(3-(6-Bromopyridin-3-yl)-1,2,4-oxadiazol-5-yl)-N-(9-ethyl-9H-carbazol-3-yl)propanamide]	low affinity	1920	–
CCn1c2ccccc2c2cc(NC(=O)CCc3nc(-c4ccc([N+](=O)[O-])cc4F)no3)ccc21 [Compound 6d, 3-(3-(2-Fluoro-4-nitrophenyl)-1,2,4-oxadiazol-5-yl)-N-(9-ethyl-9H-carbazol-3-yl)propanamide]	–	–	Ki (hCB1; [3]): 7470 nM; Ki (hCB2): 12.5 nM; Selectivity, pKi (CB2) – pKi (CB1) (hCB2; hCB2 versus hCB1): 2.78
CCn1c2ccccc2c2cc(NC(=O)CCc3nc(-c4ccc(F)cc4Br)no3)ccc21 [Compound 6e, 3-(3-(2-Bromo-4-fluorophenyl)-1,2,4-oxadiazol-5-yl)-N-(9-ethyl-9H-carbazol-3-yl)propanamide]	–	–	Ki (hCB1; hCB1-CHO, read-out: Ki hCB1): > 1000 nM; Selectivity over hCB1 (hCB2; hCB2 versus hCB1): more than 1,000 fold; receptor occupancy at 1 µM ([1]; read-out: Fractional occupancy of [3H]CP55,940 binding sites calculated by Gaddum equation): 97%
CCn1c2ccccc2c2cc(NC(=O)CCc3nc(-c4ccc([N+](=O)[O-])cc4C#N)no3)ccc21 [Compound 6f, 3-(3-(2-Cyano-4-nitrophenyl)-1,2,4-oxadiazol-5-yl)-N-(9-ethyl-9H-carbazol-3-yl)propanamide]	–	–	Ki (hCB2): 5.89 nM
CCn1c2ccccc2c2cc(NC(=O)CCc3nc(-c4ccc([N+](=O)[O-])cc4Br)no3)ccc21 [Compound 6g, 3-(3-(2-Bromo-4-nitrophenyl)-1,2,4-oxadiazol-5-yl)-N-(9-ethyl-9H-carbazol-3-yl)propanamide]	–	–	Ki (hCB1; [3]): 397 nM; Ki (hCB2): 2.38 nM; Selectivity, pKi (CB2) – pKi (CB1) (hCB2; hCB2 versus hCB1): 2.22
CCn1c2ccccc2c2cc(NC(=O)CCc3nc(-c4ccc(N)cc4F)no3)ccc21 [Compound 6i, 3-(3-(4-Amino-2-fluorophenyl)-1,2,4-oxadiazol-5-yl)-N-(9-ethyl-9H-carbazol-3-yl)propanamide]	–	> 100000	–
CCn1c2ccccc2c2cc(NC(=O)CCc3nc(-c4ccc(F)cc4O)no3)ccc21 [Compound 6j, 3-(3-(4-Fluoro-2-hydroxyphenyl)-1,2,4-oxadiazol-5-yl)-N-(9-ethyl-9H-carbazol-3-yl)propanamide]	–	5710	–
CCn1c2ccccc2c2cc(NC(=O)CCc3nc(-c4ccc(F)cc4OCCF)no3)ccc21 [Compound 6k, 3-(3-(4-Fluoro-2-(2-fluoroethoxy)phenyl)-1,2,4-oxadiazol-5-yl)-N-(9-ethyl-9H-carbazol-3-yl)-propanamide]	–	3190	–
CCn1c2ccccc2c2cc(NC(=O)CCc3nc(-c4ccc(F)cc4OC)no3)ccc21 [Compound 6l, 3-(3-(4-Fluoro-2-methoxyphenyl)-1,2,4-oxadiazol-5-yl)-N-(9-ethyl-9H-carbazol-3-yl)-propanamide]	–	223	–
CCn1c2ccccc2c2cc(NC(=O)CCc3nc(-c4ccc(OC)cc4Br)no3)ccc21 [Compound 6m, 3-(3-(2-Bromo-4-methoxyphenyl)-1,2,4-oxadiazol-5-yl)-N-(9-ethyl-9H-carbazol-3-yl)propanamide]	–	> 100000	–
O=C(CCc1nc(-c2ccc(F)cc2F)no1)Nc1cn(Cc2ccccc2)c2ccccc12 [Compound 7h, 3-(3-(2,4-Difluorophenyl)-1,2,4-oxadiazol-5-yl)-N-(1-benzyl-1H-indol-3-yl)-propanamide]	lost	> 100000	Binding to hCB1 in words (hCB1; hCB1-CHO): Weak affinity; Ki (hCB1; [3]): 6010 nM
Cc1c(C(=O)NN2CCCCC2)nn(-c2ccc(Cl)cc2Cl)c1-c1ccc(Cl)cc1 [SR141716A]	–	–	Specific CP55,940 binding remaining ([1]; 1 μM compound, 6 nM [3H]CP55,940, mouse spleen): 94%; Displacement of the specific binding of 6 nM [3H]CP55,940 ([1]; 1 μM compound): nearly no displacement
CCCCCCC(C)(C)c1ccc([C@@H]2C[C@H](O)CC[C@H]2CCCO)c(O)c1 [^3H]CP55,940]	–	–	Density of specific binding sites ([1]; 6 nM [3H]CP55,940, mouse spleen): 150 ± 25 fmol/mg wet weight; Specific binding as share of total binding ([1]; mouse spleen autoradiography): approximately 90%
SR144528	–	–	Displacement of the specific binding of 6 nM [3H]CP55,940 ([1]; 1 μM compound): 78%
